Here are results for 35 compounds from ChEMBL document CHEMBL1201862, “PubChem BioAssay data set” (2004).

Activity calls are given as the source filed them.

The target of assay [1] is T1, Corticotropin-releasing factor receptor 2/Corticotropin-releasing factor-binding protein (Homo sapiens, UniProt P24387+Q13324).
T1 sequence (Q13324 whole entry): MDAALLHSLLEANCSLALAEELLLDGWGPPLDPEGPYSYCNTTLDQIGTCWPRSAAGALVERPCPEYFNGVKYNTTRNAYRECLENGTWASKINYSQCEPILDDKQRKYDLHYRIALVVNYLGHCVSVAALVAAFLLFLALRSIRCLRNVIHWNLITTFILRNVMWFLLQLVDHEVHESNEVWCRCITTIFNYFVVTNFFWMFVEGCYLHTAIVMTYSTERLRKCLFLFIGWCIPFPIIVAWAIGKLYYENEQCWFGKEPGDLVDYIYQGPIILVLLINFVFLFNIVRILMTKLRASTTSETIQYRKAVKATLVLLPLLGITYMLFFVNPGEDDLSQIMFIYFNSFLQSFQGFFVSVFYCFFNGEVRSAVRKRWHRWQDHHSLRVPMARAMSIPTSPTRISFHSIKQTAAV
T1 sequence (P24387 whole entry): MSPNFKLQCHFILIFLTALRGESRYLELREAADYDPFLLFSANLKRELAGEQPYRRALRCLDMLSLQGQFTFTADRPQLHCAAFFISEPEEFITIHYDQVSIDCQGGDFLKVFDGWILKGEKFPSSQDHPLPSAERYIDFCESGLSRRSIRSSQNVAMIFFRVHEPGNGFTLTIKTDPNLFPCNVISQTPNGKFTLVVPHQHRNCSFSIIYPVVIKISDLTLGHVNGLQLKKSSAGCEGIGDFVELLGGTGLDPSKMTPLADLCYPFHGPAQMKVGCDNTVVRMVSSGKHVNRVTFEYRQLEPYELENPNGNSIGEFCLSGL
The assay is described as follows: Dose Response confirmation of uHTS hits for small molecule antagonists of the CRF-binding protein and CRF-R2 receptor complex. The following applies: read-out: IC50_Mean. In kind it is functional.

Assay [2] deals with T1, Corticotropin-releasing factor receptor 2/Corticotropin-releasing factor-binding protein. The assay is described as follows: activators of CRF receptor 2 with binding protein – uHTS hits, confirmation (AID 602473). In kind it is functional. The following applies: read-out: EC50_Mean.
For assay [3], the system named is Streptococcus sp. 'group A'. The assay is described as follows: Streptococcus pyogenes SK(-)GAS viability under kanamycin – luminescence, BacTiterGlo, confirmation, counter-screen for streptokinase expression inhibitor project, dose response (AID 1900). The class given is functional, organism-based. Background: Counterscreens check selectivity or assay interference.

The target in assay [4] is T2, Streptokinase A (Streptococcus pyogenes serotype M1, UniProt P10520).
T2 sequence (P10520 whole entry): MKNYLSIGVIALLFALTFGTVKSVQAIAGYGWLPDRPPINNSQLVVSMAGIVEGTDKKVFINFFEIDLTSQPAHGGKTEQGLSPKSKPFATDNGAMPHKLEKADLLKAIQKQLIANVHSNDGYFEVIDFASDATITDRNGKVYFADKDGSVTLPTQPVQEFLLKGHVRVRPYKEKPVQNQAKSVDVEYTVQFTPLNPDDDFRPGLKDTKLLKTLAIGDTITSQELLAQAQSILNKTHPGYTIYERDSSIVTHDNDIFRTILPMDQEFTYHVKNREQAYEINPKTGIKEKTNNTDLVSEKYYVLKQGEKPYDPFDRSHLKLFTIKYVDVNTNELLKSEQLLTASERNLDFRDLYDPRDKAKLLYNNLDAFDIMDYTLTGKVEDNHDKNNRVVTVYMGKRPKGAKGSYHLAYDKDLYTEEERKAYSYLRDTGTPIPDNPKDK
The assay is described as follows: viability-normalized secreted streptokinase activity reduction – plasminogen activation absorbance, OD405, dose response (AID 1914).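 Further: secreted streptokinase activity via plasminogen activation per viability signal from cell pellet.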 In kind it is functional, Streptococcus pyogenes M1 GAS.

For assay [5], the system named is Streptococcus. The assay is described as follows: GAS UMAA2166 growth inhibition – luminescence, BacTiterGlo, counter-screen for streptokinase expression inhibitor project, dose response (AID 1915).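 Further: potency for reduction of bacterial viability or growth.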 In kind it is functional, organism-based.
For assay [6], the target named is T3, Cytochrome P450 1A2 (Homo sapiens, UniProt P05177).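 Further: PubChem cytochrome P450 panel assay, CYP1A2 panel member.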
T3 sequence (P05177 whole entry): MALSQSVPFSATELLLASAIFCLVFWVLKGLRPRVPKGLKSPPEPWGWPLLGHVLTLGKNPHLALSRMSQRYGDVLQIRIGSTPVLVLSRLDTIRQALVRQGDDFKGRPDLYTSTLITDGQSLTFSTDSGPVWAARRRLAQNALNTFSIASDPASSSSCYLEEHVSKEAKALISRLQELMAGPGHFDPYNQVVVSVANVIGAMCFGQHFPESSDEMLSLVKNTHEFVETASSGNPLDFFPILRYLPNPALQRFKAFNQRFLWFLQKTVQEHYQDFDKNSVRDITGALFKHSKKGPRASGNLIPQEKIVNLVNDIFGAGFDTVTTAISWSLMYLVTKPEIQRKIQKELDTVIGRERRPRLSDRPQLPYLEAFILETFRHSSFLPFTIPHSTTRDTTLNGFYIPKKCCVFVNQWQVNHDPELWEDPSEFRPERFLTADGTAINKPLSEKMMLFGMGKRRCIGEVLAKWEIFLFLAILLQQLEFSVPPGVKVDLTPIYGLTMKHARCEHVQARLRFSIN

The target in assay [7] is Cytochrome P450 3A4 (Homo sapiens, UniProt P08684).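 Further: CYP3A4 tested as one member of a cytochrome P450 panel screen.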
For assay [8], the target named is Cytochrome P450 2C9 (Homo sapiens, UniProt P11712).
Assay [9] concerns the target Cytochrome P450 2D6 (Homo sapiens, UniProt P10635).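 Further: CYP2D6 member of a cytochrome P450 panel assay.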
Assay [10] has as its target Cytochrome P450 2C19 (Homo sapiens, UniProt P33261). The assay is described as follows: Cytochrome panel assay with activity outcomes. Panel member name: p450-cyp2c19 Compounds with AC50 equal or less than 10 uM are considered active. In kind it is functional. The following applies: read-out: AC50.
Assay [11] addresses T4, Heat shock factor protein 1 (Mus musculus, UniProt P38532).
T4 sequence (P38532 whole entry): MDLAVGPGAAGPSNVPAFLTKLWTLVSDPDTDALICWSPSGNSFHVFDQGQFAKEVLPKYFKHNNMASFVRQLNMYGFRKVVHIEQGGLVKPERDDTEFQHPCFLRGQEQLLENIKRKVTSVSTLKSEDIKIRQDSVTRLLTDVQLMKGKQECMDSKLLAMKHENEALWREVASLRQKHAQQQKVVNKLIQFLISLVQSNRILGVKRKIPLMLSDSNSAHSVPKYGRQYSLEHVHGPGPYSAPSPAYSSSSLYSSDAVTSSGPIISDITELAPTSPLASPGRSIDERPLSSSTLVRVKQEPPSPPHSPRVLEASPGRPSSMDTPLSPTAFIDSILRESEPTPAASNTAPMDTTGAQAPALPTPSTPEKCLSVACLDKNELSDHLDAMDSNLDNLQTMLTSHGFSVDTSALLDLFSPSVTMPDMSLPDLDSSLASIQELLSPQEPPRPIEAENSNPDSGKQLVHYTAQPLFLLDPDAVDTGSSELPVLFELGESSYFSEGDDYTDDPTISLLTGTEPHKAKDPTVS
The assay is described as follows: decrease of HSF1-responsive luciferase luminescence – cell-based, NIH3T3, dose retest, confirmation (AID 2382).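 Further: NIH3T3 fibroblasts with HSF1-driven luciferase reporter stressed by proteasome inhibitor MG132; luminescence from HSF1-driven luciferase expression after 8 hours of MG132 stress.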 The class given is functional.

Cytochrome P450 3A4, sequence (P08684 whole entry): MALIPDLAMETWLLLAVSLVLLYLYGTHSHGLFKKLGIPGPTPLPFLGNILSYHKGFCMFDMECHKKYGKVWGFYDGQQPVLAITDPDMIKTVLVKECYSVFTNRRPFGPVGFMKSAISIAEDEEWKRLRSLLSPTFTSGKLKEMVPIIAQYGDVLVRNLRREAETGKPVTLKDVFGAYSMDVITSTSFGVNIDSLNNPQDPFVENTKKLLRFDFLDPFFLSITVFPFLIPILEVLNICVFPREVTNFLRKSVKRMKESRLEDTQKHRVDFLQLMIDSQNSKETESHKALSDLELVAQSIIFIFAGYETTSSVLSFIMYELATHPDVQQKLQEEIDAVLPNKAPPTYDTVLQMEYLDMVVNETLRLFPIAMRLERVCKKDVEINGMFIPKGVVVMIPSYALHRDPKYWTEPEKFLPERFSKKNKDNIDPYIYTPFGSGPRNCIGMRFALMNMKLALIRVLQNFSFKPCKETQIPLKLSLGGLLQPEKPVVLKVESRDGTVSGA
Cytochrome P450 2C19, sequence (P33261 whole entry): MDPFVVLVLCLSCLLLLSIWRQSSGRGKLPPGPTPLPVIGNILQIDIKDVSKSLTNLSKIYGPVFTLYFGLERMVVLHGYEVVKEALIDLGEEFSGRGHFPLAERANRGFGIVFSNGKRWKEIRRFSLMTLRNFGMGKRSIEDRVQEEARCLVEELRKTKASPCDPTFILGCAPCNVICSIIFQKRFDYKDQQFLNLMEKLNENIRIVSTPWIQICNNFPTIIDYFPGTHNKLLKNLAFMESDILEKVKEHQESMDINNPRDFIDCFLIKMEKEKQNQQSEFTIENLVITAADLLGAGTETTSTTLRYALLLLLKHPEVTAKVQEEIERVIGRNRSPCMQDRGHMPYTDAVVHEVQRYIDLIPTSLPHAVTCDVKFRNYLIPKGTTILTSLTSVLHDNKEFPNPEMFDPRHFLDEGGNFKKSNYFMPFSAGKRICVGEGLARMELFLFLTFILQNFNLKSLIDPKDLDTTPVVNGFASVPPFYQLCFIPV
Cytochrome P450 2C9, sequence (P11712 whole entry): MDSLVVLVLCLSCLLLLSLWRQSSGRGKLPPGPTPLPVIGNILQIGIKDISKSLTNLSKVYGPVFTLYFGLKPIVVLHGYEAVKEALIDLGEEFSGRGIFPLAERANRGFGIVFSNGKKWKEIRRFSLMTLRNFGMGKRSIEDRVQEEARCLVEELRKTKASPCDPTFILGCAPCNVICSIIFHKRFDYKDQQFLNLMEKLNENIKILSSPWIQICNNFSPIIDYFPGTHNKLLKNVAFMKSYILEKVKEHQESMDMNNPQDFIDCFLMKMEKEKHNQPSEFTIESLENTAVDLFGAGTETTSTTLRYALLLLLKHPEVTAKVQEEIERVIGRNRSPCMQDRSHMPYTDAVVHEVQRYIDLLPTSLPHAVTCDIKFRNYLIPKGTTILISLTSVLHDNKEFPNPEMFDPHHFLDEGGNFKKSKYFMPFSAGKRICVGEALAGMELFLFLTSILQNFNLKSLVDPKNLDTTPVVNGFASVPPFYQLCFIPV
Cytochrome P450 2D6, sequence (P10635 whole entry): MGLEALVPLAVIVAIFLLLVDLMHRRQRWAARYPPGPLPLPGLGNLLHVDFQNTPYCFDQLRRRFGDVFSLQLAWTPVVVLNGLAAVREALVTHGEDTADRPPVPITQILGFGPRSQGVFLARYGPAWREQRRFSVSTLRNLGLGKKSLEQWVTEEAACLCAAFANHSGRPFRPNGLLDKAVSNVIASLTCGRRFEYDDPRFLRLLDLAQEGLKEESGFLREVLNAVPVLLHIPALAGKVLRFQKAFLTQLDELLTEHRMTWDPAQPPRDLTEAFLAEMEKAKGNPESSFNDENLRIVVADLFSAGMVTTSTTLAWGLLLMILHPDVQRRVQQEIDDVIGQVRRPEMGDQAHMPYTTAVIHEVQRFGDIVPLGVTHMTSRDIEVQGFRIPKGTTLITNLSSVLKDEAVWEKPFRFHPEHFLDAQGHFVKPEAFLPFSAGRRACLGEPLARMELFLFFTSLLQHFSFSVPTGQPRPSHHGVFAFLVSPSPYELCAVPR

Consider `Cn1cc(CN2CCCC(C(=O)Nc3cccc(-c4cc5ccccc5[nH]4)c3)C2)cn1` (configuration not stated), for which, in assay [1], the IC50 was > 47.1 µM (inactive). Further, the EC50 in assay [2] is 42.9 µM (active).

`CC(C)NC(=S)N(CCc1ccncc1)C(C)C`: the IC50 in assay [1] is > 47.1 µM (inactive). Moreover, the EC50 in [2] is > 53 µM (inactive).

Regarding `CC12CCC(C/C1=N\OC(=O)c1c(F)cccc1F)C2(C)C` (configuration not stated), the IC50 in assay [1] was > 47.1 µM (inactive). Moreover, in assay [2], the EC50 was > 53 µM (inactive).

On to `CC(C)(C)N/N=C1\CC(c2ccccc2)Oc2ccccc21` (configuration not stated), for which the EC50 in assay [3] is 6.48 µM (active); in assay [4] it was 7.08 µM (active); in [5], > 150 µM (not active).

Usually AC50 stands for the concentration giving half of the maximal activity seen. As for `Cc1ccccc1OCC(=O)NC(=S)Nc1ccc(N2CCOCC2)c(Cl)c1`, the AC50 in [6] was 12.6 µM (inconclusive); in assay [7], 14.1 µM (inconclusive); in assay [8] it was 15.8 µM (inconclusive).

Take `COc1cc(OC)c([C@H]2C=C(C)[C@H]3C[C@@H]2C3(C)C)c(OC)c1`: the EC50 in [3] was 4.7 µM (active); in [4], 63.3 µM (active); in [5] it was 9.95 µM (active).

For the compound `O=C(c1cccc(F)c1)N1CCC[C@@]2(CCN(Cc3nccs3)C2)C1`, the AC50 was 20 µM (inconclusive) in assay [9] and 12.6 µM (inconclusive) in assay [6].

For the compound `O=C(O)c1cc(-c2ccc3cc4c(cc3c2)OCO4)nc2ccccc12`, the AC50 in [6] was 3.16 µM (inconclusive).

Turning to `CCCCCC(=O)O[C@H](CC(=O)O)C[N+](C)(C)C`, the AC50 in [6] was 31.6 µM (inconclusive).

For `O=C(O)c1ccc(NCc2nc3cc4ccccc4cc3[nH]2)cc1`, in assay [6], the AC50 is 5.01 µM (inconclusive).

Take `Cn1cccc1C(=O)N1CCC[C@@]2(CCN(Cc3ccccc3)C2)C1`: the AC50 in assay [6] was 10 µM (inconclusive); in assay [7], 5.01 µM (inconclusive).

Consider `COCCn1c(=O)c(-c2cc(F)cc(F)c2)nc2cnc(N3CCN(C)CC3)nc21`, for which the AC50 in [6] is 15.8 µM (inconclusive); in assay [8] it was 39.8 µM (inconclusive).

On to `COc1ccc(NC(=O)N2CCC3(CC2)CCN(C(=O)c2csnn2)CC3)cc1`, for which the AC50 in assay [6] is 6.31 µM (inconclusive); in assay [7], 12.6 µM (inconclusive).

As to `Cc1cc(C(=O)Nc2ccc3c(c2)OCCO3)nn1C(C)(C)C`, in assay [1], the IC50 was > 47.1 µM (inactive). In [2], the EC50 is > 53 µM (inactive).

Regarding `Cc1ccc(-n2c(S)nnc2-c2cc(C)n(C)n2)cc1`, in assay [6], the AC50 is 28.2 µM (inconclusive).

As for `CC1(C2CC2)NC(=O)N(CC(=O)Nc2ccccc2F)C1=O` (configuration not stated), the IC50 in assay [1] is > 47.1 µM (inactive). Also, the EC50 in assay [2] is > 53 µM (inactive).

Consider `COc1ccc(S(=O)(=O)Nc2c(C)n(C)n(-c3ccccc3)c2=O)cc1C(=O)O`, for which the IC50 in [1] was > 47.1 µM (inactive). Besides, in assay [2], the EC50 is > 53 µM (inactive).

Turning to `Fc1ccccc1CNc1ccc(Cl)c(Cl)c1`, the results for the EC50 in assay [3], in [4] and in assay [5] were 11.4 µM (active), > 150 µM (not active) and 63.8 µM (active), respectively.

`Cc1cc(C)c(NC(=O)CSc2nnc(Cc3cccn3C)n2-c2ccc(F)cc2)c(C)c1`: the figures for the AC50 in assay [10] and in assay [6] were 28.2 µM (inconclusive) and 2.51 µM (inconclusive), respectively.

On to `C/C(=N/NC(=O)CNC(=O)c1cccnc1)c1cccc([N+](=O)[O-])c1`, for which the EC50 in assay [3], in assay [4] and in [5] was > 150 µM (not active) in each case.

In the case of `COc1ccc(OC)c(NC(S)=NCc2cccnc2)c1`, the EC50 in [11] is reported as > 195 µM (not active).

`O=C(COc1cccnc1[N+](=O)[O-])Nc1cc(S(=O)(=O)N2CCCCC2)ccc1Cl`: the EC50 in assay [11] is reported as > 195 µM (not active).

Take `Cc1cc(C)c(NC(=O)C(C)Sc2nnc(-c3ccco3)n2-c2ccccc2)c(C)c1` (configuration not stated): the concentration at half-maximal activity (AC50) in assay [6] was 22.4 µM (inconclusive).

`O=C(O)/C=C\C(=O)Nc1ccc2c(c1)C(=O)c1cc(F)ccc1-2`: the AC50 in [6] was 0.794 µM (inconclusive).

As for `O=C(NCc1cn2ccccc2n1)C1CCC(=O)N(Cc2ccccc2F)C1` (configuration not stated), the IC50 in assay [1] is > 47.1 µM (inactive). In addition, the EC50 in [2] was > 53 µM (inactive).

With `COc1ccc(COC(=O)N/N=C(\C)CC(=O)Nc2c(C)cc(C)cc2C)cc1`, the AC50 was 25.1 µM (inconclusive) in [10] and 22.4 µM (inconclusive) in assay [6].

Turning to `CCCCN(C(=O)CSc1nnc[nH]1)c1c(N)n(Cc2ccccc2)c(=O)[nH]c1=O`, the IC50 in [1] was > 47.1 µM (inactive). Also, in assay [2], the EC50 is > 53 µM (inactive).

Regarding `Cc1ccc(NC(=O)CSCc2cc(=O)n3cc(C)sc3n2)c(C)c1`, the EC50 in assay [11] is > 195 µM (not active).

Regarding `COC(=O)CN1C(=O)Nc2ccc(C)cc2C1c1ccccc1` (configuration not stated), the EC50 in assay [11] is given as > 195 µM (not active).

Regarding `COC(=O)c1sccc1-c1ccc(C(=O)Nc2cccnc2)o1`, the AC50 in [6] is 0.282 µM (inconclusive).

In the case of `COCCCN(Cc1ccco1)C(=O)CSc1nc2ccc[nH]c-2n1`, in assay [11], the EC50 was > 195 µM (not active).

With `O=C(Nc1ccccc1)c1ccccc1OCc1cccc([N+](=O)[O-])c1`, in [1], the IC50 was > 47.1 µM (inactive). Besides, the EC50 in assay [2] was > 53 µM (inactive).

With `O=C(CSc1nnc(CCc2ccccc2)n1-c1ccc(Cl)cc1)c1ccccc1`, the EC50 in [11] is on record as > 195 µM (not active).

As for `Cc1cccc(N2C(=O)NC(=O)/C(=C\c3ccc(N4CCOCC4)cc3)C2=O)c1`, the IC50 in assay [1] is > 47.1 µM (inactive). Besides, the EC50 in assay [2] was > 53 µM (inactive).

Turning to `COc1ccc(Cc2nnc(NC(=O)Nc3ccc(C)cc3)s2)cc1OC`, the IC50 in assay [1] is > 47.1 µM (inactive). Also, the EC50 in assay [2] was > 53 µM (inactive).
